Test results taken from PubChem BioAssay (NCI).
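GI50 is the concentration that inhibits growth by half. TGI: total growth inhibition.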

Assays:
Assay in all cases: NCI tumour cell line growth inhibition, 384-well format
786-0 renal = tested on: 786-0 renal
A498 renal = tested on: A498 renal
A549 NSCLC = tested on: A549 NSCLC
ACHN renal = tested on: ACHN renal
BT-549 breast = tested on: BT-549 breast
CAKI-1 renal = tested on: CAKI-1 renal
CCRF-CEM leukemia = tested on: CCRF-CEM leukemia
COLO 205 colon = tested on: COLO 205 colon
DU-145 prostate = tested on: DU-145 prostate
EKVX NSCLC = tested on: EKVX NSCLC
HCC-2998 colon = tested on: HCC-2998 colon
HCT-116 colon = tested on: HCT-116 colon
HCT-15 colon = tested on: HCT-15 colon
HL-60(TB) leukemia = tested on: HL-60(TB) leukemia
HOP-62 NSCLC = tested on: HOP-62 NSCLC
HOP-92 NSCLC = tested on: HOP-92 NSCLC
HT29 colon = tested on: HT29 colon
IGROV1 ovarian = tested on: IGROV1 ovarian
K-562 leukemia = tested on: K-562 leukemia
KM12 colon = tested on: KM12 colon
LOX IMVI melanoma = tested on: LOX IMVI melanoma
M14 melanoma = tested on: M14 melanoma
MALME-3M melanoma = tested on: MALME-3M melanoma
MCF7 breast = tested on: MCF7 breast
MDA-MB-231 breast = tested on: MDA-MB-231 breast
MDA-MB-435 melanoma = tested on: MDA-MB-435 melanoma
MDA-MB-468 breast = tested on: MDA-MB-468 breast
MOLT-4 leukemia = tested on: MOLT-4 leukemia
NCI-H226 lung = tested on: NCI-H226 lung
NCI-H23 lung = tested on: NCI-H23 lung
NCI-H322M lung = tested on: NCI-H322M lung
NCI-H460 NSCLC = tested on: NCI-H460 NSCLC
NCI-H522 lung = tested on: NCI-H522 lung
NCI/ADR-RES ovarian = tested on: NCI/ADR-RES ovarian
OVCAR-3 ovarian = tested on: OVCAR-3 ovarian
OVCAR-4 ovarian = tested on: OVCAR-4 ovarian
OVCAR-5 ovarian = tested on: OVCAR-5 ovarian
OVCAR-8 ovarian = tested on: OVCAR-8 ovarian
PC-3 prostate = tested on: PC-3 prostate
RPMI-8226 leukemia = tested on: RPMI-8226 leukemia
RXF 393 renal = tested on: RXF 393 renal
SF-268 CNS = tested on: SF-268 CNS
SF-295 CNS = tested on: SF-295 CNS
SF-539 CNS = tested on: SF-539 CNS
SK-MEL-2 melanoma = tested on: SK-MEL-2 melanoma
SK-MEL-28 melanoma = tested on: SK-MEL-28 melanoma
SK-MEL-5 melanoma = tested on: SK-MEL-5 melanoma
SK-OV-3 ovarian = tested on: SK-OV-3 ovarian
SN12C renal = tested on: SN12C renal
SNB-19 CNS = tested on: SNB-19 CNS
SNB-75 CNS = tested on: SNB-75 CNS
SR leukemia = tested on: SR leukemia
SW-620 colon = tested on: SW-620 colon
T-47D breast = tested on: T-47D breast
TK-10 renal = tested on: TK-10 renal
U251 glioblastoma = tested on: U251 glioblastoma
UACC-257 melanoma = tested on: UACC-257 melanoma
UACC-62 melanoma = tested on: UACC-62 melanoma
UO-31 renal = tested on: UO-31 renal

Structure (SMILES): CO[C@H]1/C=C/C[C@H](C)[C@@H](C)S(=O)(=O)NC(=O)c2ccc3c(c2)N(C[C@@H]2CC[C@H]21)C[C@@]1(CCCc2cc(Cl)ccc21)CO3
- GI50 ([…]-0 renal): 4.4 µM
- TGI (786-0 renal): 15.8 µM
- GI50 (A498 renal): 3.29 µM
- TGI (A498 renal): 12.5 µM
- GI50 (A549 NSCLC): 3.37 µM
- TGI (A549 NSCLC): 11.1 µM
- GI50 (ACHN renal): 4.5 µM
- TGI (ACHN renal): 14.7 µM
- GI50 (BT-549 breast): 1.65 µM
- TGI (BT-549 breast): 3.33 µM
- GI50 (CAKI-1 renal): 11.3 µM
- TGI (CAKI-1 renal): 23.5 µM
- GI50 (CCRF-CEM leukemia): 0.468 µM
- TGI (CCRF-CEM leukemia): 1.11 µM
- GI50 (COLO 205 colon): 4.06 µM
- TGI (COLO 205 colon): 11.3 µM
- GI50 (DU-145 prostate): 3.87 µM
- TGI (DU-145 prostate): 13.1 µM
- GI50 (EKVX NSCLC): 1.98 µM
- TGI (EKVX NSCLC): 7.23 µM
- GI50 (HCC-2998 colon): 1.62 µM
- TGI (HCC-2998 colon): 3.84 µM
- GI50 (HCT-116 colon): 2.93 µM
- TGI (HCT-116 colon): 8.98 µM
- GI50 (HCT-15 colon): 3.39 µM
- TGI (HCT-15 colon): 10.6 µM
- GI50 (HL-60(TB) leukemia): 0.021 µM
- TGI (HL-60(TB) leukemia): 0.0423 µM
- GI50 (HOP-62 NSCLC): 2.61 µM
- TGI (HOP-62 NSCLC): 6.27 µM
- GI50 (HOP-92 NSCLC): 2.13 µM
- TGI (HOP-92 NSCLC): 5.71 µM
- GI50 (HT29 colon): 3.59 µM
- TGI (HT29 colon): 12.4 µM
- GI50 (IGROV1 ovarian): 3.71 µM
- TGI (IGROV1 ovarian): 13.4 µM
- GI50 (K-562 leukemia): 2 µM
- TGI (K-562 leukemia): 5.52 µM
- GI50 (KM12 colon): 3.97 µM
- TGI (KM12 colon): 13.5 µM
- GI50 (LOX IMVI melanoma): 2.29 µM
- TGI (LOX IMVI melanoma): 4.18 µM
- GI50 (M14 melanoma): 2.07 µM
- TGI (M14 melanoma): 4.4 µM
- GI50 (MALME-3M melanoma): 2.83 µM
- TGI (MALME-3M melanoma): 7.6 µM
- GI50 (MCF7 breast): 1.31 µM
- TGI (MCF7 breast): 4 µM
- GI50 (MDA-MB-231 breast): 3.64 µM
- TGI (MDA-MB-231 breast): 9.55 µM
- GI50 (MDA-MB-435 melanoma): 1.98 µM
- TGI (MDA-MB-435 melanoma): 4.87 µM
- GI50 (MDA-MB-468 breast): 0.339 µM
- TGI (MDA-MB-468 breast): 1.07 µM
- GI50 (MOLT-4 leukemia): 0.263 µM
- TGI (MOLT-4 leukemia): 0.794 µM
- GI50 (NCI-H226 lung): 3.1 µM
- TGI (NCI-H226 lung): 9.05 µM
- GI50 (NCI-H23 lung): 0.758 µM
- TGI (NCI-H23 lung): 2.2 µM
- GI50 (NCI-H322M lung): 6.3 µM
- TGI (NCI-H322M lung): 18.4 µM
- GI50 (NCI-H460 NSCLC): 1.78 µM
- TGI (NCI-H460 NSCLC): 3.44 µM
- GI50 (NCI-H522 lung): 0.95 µM
- TGI (NCI-H522 lung): 2.27 µM
- GI50 (NCI/ADR-RES ovarian): 1.74 µM
- TGI (NCI/ADR-RES ovarian): 3.64 µM
- GI50 (OVCAR-3 ovarian): 1.71 µM
- TGI (OVCAR-3 ovarian): 3.22 µM
- GI50 (OVCAR-4 ovarian): 1.33 µM
- TGI (OVCAR-4 ovarian): 3.39 µM
- GI50 (OVCAR-5 ovarian): 8.16 µM
- TGI (OVCAR-5 ovarian): 20.1 µM
- GI50 (OVCAR-8 ovarian): 2.81 µM
- TGI (OVCAR-8 ovarian): 7.42 µM
- GI50 (PC-3 prostate): 3.93 µM
- TGI (PC-3 prostate): 14 µM
- GI50 (RPMI-8226 leukemia): 0.0172 µM
- TGI (RPMI-8226 leukemia): 0.0405 µM
- GI50 (RXF 393 renal): 0.689 µM
- TGI (RXF 393 renal): 2.35 µM
- GI50 (SF-268 CNS): 2.45 µM
- TGI (SF-268 CNS): 7.41 µM
- GI50 (SF-295 CNS): 1.8 µM
- TGI (SF-295 CNS): 3.72 µM
- GI50 (SF-539 CNS): 1.75 µM
- TGI (SF-539 CNS): 3.42 µM
- GI50 (SK-MEL-2 melanoma): 0.211 µM
- TGI (SK-MEL-2 melanoma): 0.677 µM
- GI50 (SK-MEL-28 melanoma): 2.67 µM
- TGI (SK-MEL-28 melanoma): 6.64 µM
- GI50 (SK-MEL-5 melanoma): 1.66 µM
- TGI (SK-MEL-5 melanoma): 3.07 µM
- GI50 (SK-OV-3 ovarian): 4.24 µM
- TGI (SK-OV-3 ovarian): 13.1 µM
- GI50 (SN12C renal): 2.92 µM
- TGI (SN12C renal): 7.99 µM
- GI50 (SNB-19 CNS): 3.81 µM
- TGI (SNB-19 CNS): 11.9 µM
- GI50 (SNB-75 CNS): 3.6 µM
- TGI (SNB-75 CNS): 9.04 µM
- GI50 (SR leukemia): 0.0287 µM
- TGI (SR leukemia): 0.173 µM
- GI50 (SW-620 colon): 2.12 µM
- TGI (SW-620 colon): 4.77 µM
- GI50 (T-47D breast): 2.79 µM
- TGI (T-47D breast): 11.1 µM
- GI50 (TK-10 renal): 4.88 µM
- TGI (TK-10 renal): 15.7 µM
- GI50 (U251 glioblastoma): 3.2 µM
- TGI (U251 glioblastoma): 9.92 µM
- GI50 (UACC-257 melanoma): 2.95 µM
- TGI (UACC-257 melanoma): 9.81 µM
- GI50 (UACC-62 melanoma): 0.284 µM
- TGI (UACC-62 melanoma): 0.762 µM
- GI50 (UO-31 renal): 6.3 µM
- TGI (UO-31 renal): 18.2 µM
